Earlier results in patent US20240410831A1, “Multi-Mode Zinc-Selective Emission-Ratiometric Fluorescent Probes for Biological Application” (Georgia Tech Research Corporation, priority 2023, published 2024).
Where a name gives a salt, the structure may show the parent alone.

Key:
[1] = in 1.0 N H2SO4; cited from earlier work
[2] = pH 7.0, 25° C.; read-out: Kd for Zn(II) of competing ligand; cited from earlier work

| SMILES | quantum yield of reference standard [1] | Kd [2] [nM] |
| --- | --- | --- |
| C=C[C@H]1C[N@@]2CC[C@H]1C[C@H]2[C@H](O)c1ccnc2ccc(OC)cc12 [quinine sulfate] | 0.546 |  |
| O=C(O)CN(CCOCCOCCN(CC(=O)O)CC(=O)O)CC(=O)O [EGTA, ethyleneglycol-bis(β-aminoethyl)-N,N,N′,N′-tetraacetic acid] |  | 4.6 |
